In patent US8895502B2, “β2-glycoprotein I peptide inhibitors” (Kansas State University Research Foundation, priority 2010, dated 2014):
Entries after “also recorded” stand apart in the source; their conditions may differ. Ends that are not written are not given here.

Assays:
C3 = assay: Intestinal IR, C3 deposition immunohistochemistry; type: in vivo, mouse; design: key to C3 Deposition: + indicates significant difference from Sham treated mice; − indicates not significantly different from C57B1/6 sham treated mice; +/− indicates no significant difference from either C57B1/6 mice subjected to either Sham or IR; conditions: for C3 Deposition: C57Bl/6 mice subjected to IR, peptide 40 μM i.v. 5 min prior to artery occlusion; for C3 deposition / complement activation after IR: C57Bl/6 mice, peptide infused prior to IR
Procedure: (§1) C57Bl/6 and Rag-1^−/− mice were subjected to ischemia followed by reperfusion similar to previously described studies (Moses, T. et al., J. Leukoc. Biol. 86:971-980 (2009)). Briefly, ketamine (16 mg/kg) and xylazine (80 mg/kg) were used to anesthetize the mice. Buprenorphine (0.06 mg/kg) was then administered for pain. A midline laparotomy was performed to expose the abdominal cavity of the mice, which were then allowed to equilibrate for 30 min. Body temperature was maintained at 37° C. using a water-circulating heat pad. Placing a warm, saline moistened piece of gauze over the abdominal cavity prevented peritoneal desiccation. […] Ischemia was noted by the intestine changing from a pink color to a gray color. After 30 min of ischemia, the clamp was removed and the intestines were allowed to reperfuse for 5, 10, 15, or 120 min. […] Mice treated with the various β2-GPI peptides underwent the same procedure with i.v. administration of the peptides (40 μM) 5 min prior to artery occlusion. Peptides 296, 305, and 296Cys to Ser were dissolved in N. Saline (0.9% NaCl) and injected i.v. in 100-μL volumes. Peptides 100 and 181 were dissolved in DMSO prior to diluting 1/100 in N. Saline. Additional mice received peptides prior to Sham treatment.
(§2) After euthanasia, an additional 2-cm intestinal section from each mouse was immediately snap frozen in O.C.T. freezing medium and 8 μm sections were placed on slides for immunohistochemistry. The C3 deposition and F4/80 expression on the tissue sections were detected by staining with a purified rat-anti-mouse C3 (Hycult Biotechnologies; Plymouth Meeting, Pa.) or F4/80 (eBioscience; San Diego, Calif.) antibody followed by a Texas-red conjugated donkey-anti-rat IgG secondary antibody (Jackson Immunoresearch). CD31 (PECAM-1) and CD106 (VCAM-1) were detected by FITC conjugated rat anti-mouse CD31 or CD106 (Biolegend; San Diego, Calif.) antibodies. Each experiment contained serial sections stained with the appropriate isotype control antibodies. All slides were mounted with ProLong Gold (Invitrogen). Images were obtained at room temperature using a Nikon Eclipse 80i microscope equipped with a CoolSnap CF camera (Photometrics) and analyzed using Metavue software (Molecular Devices). The fluorescence was semi-quantitated using Image J software (NIH) using the fluorescent area fraction after setting threshold for each experiment. The average of the isotype control was subtracted from each photo.

CD31 (PECAM-1) = assay: Intestinal IR, CD31 immunohistochemistry; type: in vivo, mouse; design: key to CD31 Deposition: + indicates significant difference from Sham treated mice; − indicates not significantly different from C57B1/6 sham treated mice; +/− indicates no significant difference from either C57B1/6 mice subjected to either Sham or IR; conditions: for CD31 Deposition: C57Bl/6 mice subjected to IR, peptide 40 μM i.v. 5 min prior to artery occlusion; for expression of adhesion molecule CD31 after IR: C57Bl/6 mice, peptide prior to IR
Procedure: as §1, §2

IL-6 = assay: Intestinal IR, ex vivo IL-6 generation; type: in vivo, mouse; design: key to IL-6 Induction: + indicates significant difference from Sham treated mice; − indicates not significantly different from C57B1/6 sham treated mice; +/− indicates no significant difference from either C57B1/6 mice subjected to either Sham or IR; conditions: for IL-6 Induction: C57Bl/6 mice subjected to IR, peptide 40 μM i.v. 5 min prior to artery occlusion; for IR induced IL-6 production: C57Bl/6 mice, peptide prior to IR
Procedure: as §1
Ex vivo generation of eicosanoids by mid-jejunal tissue was determined. Immediately after collection, a 2-cm intestinal section from each mouse was minced, washed, resuspended in 37° C. oxygenated Tyrode's buffer (Sigma-Aldrich; St. Louis, Mo.), incubated at 37° C. for 20 minutes, and the supernatant collected. PGE2 and LTB4 concentrations were determined using enzyme immunoassay kits (Cayman Chemical; Ann Arbor, Mich.). IL-6 and IL-12 concentrations were determined using a Milliplex MAP immunoassay kit (Millipore) and read on a Milliplex Analyzer (Millipore). All eicosanoid and cytokine concentrations were standardized to the total tissue protein content.
(§3) Total peroxidase, LTB4, PGE2, IL-6, IL-12p40, and IL-12p70 concentrations were determined using the procedures described in Example 1.

peroxidase = assay: Intestinal IR, total tissue peroxidase; type: in vivo, mouse; conditions: for total peroxidase production by the intestinal tissues: administered up to 60 min post-reperfusion
Procedure: Ischemia/reperfusion was performed on ketamine/xylazine anesthetized mice as described in Example 1 above. After 2 hours of reperfusion, the mice were euthanized and sera, liver, spleen, and 2 cm sections of the small intestine, approximately 10 cm distal to the gastroduodenal junction, were collected for histological and other analyses. Mice treated with the various β2-GPI peptides underwent the same procedure with i.v. administration of the peptides. Most studies assumed 2 mL total blood volume in a mouse and administered peptides to a final concentration of 40 μM at 5 min prior to ischemia. Dose response studies administered 1-40 μM peptide at 5 min prior to ischemia and time course studies administered 40 μM peptide at 5 min prior to ischemia, and at 15-, 30- or 60-min post-ischemia (i.e., during reperfusion).
as §3

[1] = test system: thioglycollate-elicited macrophages, nitric oxide; assay: β2-GPI stimulated macrophage nitric oxide production; type: cell-based; conditions: mouse β2-GPI 10 μg/mL, peptide 40 μM, 18 hours
Procedure: (§4) C57Bl/6 mice were injected i.p. with 1 mL thioglycollate (4%) 4 days prior to peritoneal lavage. Peritoneal exudate macrophages or the B cell line, LK35.2, were seeded at 2×10^6 cells/mL in 24-well or 96-well plates. After macrophage adherence, both cell types were treated with mouse β2-GPI (10 μg/mL) with or without peptide (40 μM). Additional cells were unstimulated as a negative control or stimulated with 10 μg/mL LPS (E. coli 055B5) as a positive control. Supernatants were collected 18-20 hours after stimulation and analyzed for nitrite by Griess reagent (Hoffman & Fleming, Cell Biochem. Funct. 28:686-694 (2010)) or IL-6 by Milliplex MAP kit (Millipore) following the manufacturer's instructions using a Luminex 200 with xPONENT 3.1 and Analyst software (Millipore).

LTB4 = assay: Intestinal IR, ex vivo LTB4 generation; type: in vivo, mouse; conditions: 40 μM peptide at 5 min prior to ischemia and 15-, 30- or 60-min post-ischemia
[2] = test system: thioglycollate-elicited macrophages, IL-6; assay: β2-GPI stimulated macrophage IL-6 production; type: cell-based; conditions: mouse β2-GPI 10 μg/mL, peptide 40 μM, 18 hours
Procedure: as §4

[3] = dose response, similar concentrations of each peptide
[4] = peptide administered prior to IR

Row | Substance | C3 Deposition (C3) | C3 deposition / complement activation after IR (C3) | CD31 Deposition (CD31 (PECAM-1)) | expression of adhesion molecule CD31 after IR (CD31 (PECAM-1)) | IL-6 Induction (IL-6) | IR induced IL-6 production (IL-6) | total peroxidase production by the intestinal tissues (peroxidase) | intestinal peroxidase production (peroxidase; [3]) | intestinal peroxidase production (peroxidase; [4]) | β2-GPI-induced nitric oxide production [1] | IR-induced LTB4, time course of administration (LTB4) | β2-GPI induced IL-6 production [2]
1 | H-IHFYCKNKEKKCSYTVEAHCRDGTI-OH (cysteine pairing not given here) [peptide 296] | − | significantly decreased C3 deposition; also recorded: attenuated complement activation | − | inhibited | − | attenuated; also recorded: inhibit |  |  |  |  |  | 
2 | H-IHFYSKNKEKKSSYTVEAHSRDGTI-OH [peptide 296Cys-Ser] | − | significantly decreased C3 deposition; also recorded: attenuated complement activation | − | inhibited | − | attenuated; also recorded: inhibit | significantly decreased | attenuated | significantly attenuated | significantly attenuated | significantly inhibited | 
3 | H-IPSCFKEHSSLAFWKTDASELTPC-NH2 (cysteine pairing not given here) [peptide 322, 18] | + | did not significantly inhibit C3 deposition | + |  | + | did not inhibit |  |  |  |  |  | 
4 | H-KKCSYTVEAHCRDGTIEIPSCFKEHS-OH (cysteine pairing not given here) [peptide 305, 10] | − | not significantly different from either Sham or IR treatment; also recorded: attenuated complement activation | + | inhibited | − | attenuated; also recorded: inhibited | significantly decreased | attenuated | significantly attenuated | significantly attenuated |  | attenuated
5 | H-KNISFACNPGFFLNG-NH2 [peptide 100, 16, reference compound] | + | did not significantly inhibit C3 deposition | + | significantly different from both Sham and IR treated mice | +/− | attenuated IL-6 production |  |  |  |  |  | 
